Results: the CheMixHub viscosity set
Values joined by “and” are separate entries in the source; they are usually repeats but may differ in a detail not shown here. Equal values may be shown once.

Test: xn = mol fraction of the nth substance listed

O=S(=O)(O)O + COc1ccccc1
viscosity [mPa·s], 101 kPa
Conditions	x1 = 0.0892	x1 = 0.2274	x1 = 0.5064	x1 = 0.6238	x1 = 0.6321	x1 = 0.6494	x1 = 0.679	x1 = 0.7207	x1 = 0.746	x1 = 0.9241
293.15 K	1.46	3.17	41.69	260.3	172.8	263.5	317.9	262.1	201.3	34.68
303.15 K	1.35	1.79	30.05	166	100.8	141.3	182	151.4	131.3	22.53
313.15 K	1.25	2	23.8	87.9	70.2	79.44	105	83.3	71.9	16.6
323.15 K	1.15	2.58	17.8	72.9	42.1	47.4	83.18	50.18	44.8	11.9

ClCCl + CC(=O)c1ccccc1
298.15 K, 101 kPa
Conditions	viscosity [mPa·s]
x2 = 0.0728	0.5046
x2 = 0.1501	0.5598
x2 = 0.2324	0.6209
x2 = 0.3201	0.6967
x2 = 0.4139	0.7804
x2 = 0.5144	0.8931
x2 = 0.6224	1.036
x2 = 0.7386	1.212
x2 = 0.8641	1.422

ClCCl + Cc1cccc(C)c1
101 kPa
Conditions	viscosity [mPa·s]
293.15 K, x1 = 0.2258	0.583
293.15 K, x1 = 0.4249	0.553
293.15 K, x1 = 0.4896	0.541
293.15 K, x1 = 0.5542	0.528
293.15 K, x1 = 0.6288	0.512
293.15 K, x1 = 0.769	0.482
293.15 K, x1 = 0.8151	0.472
298.15 K, x1 = 0.2398	0.55
298.15 K, x1 = 0.4075	0.527
298.15 K, x1 = 0.4997	0.511
298.15 K, x1 = 0.5622	0.501
298.15 K, x1 = 0.6288	0.485
298.15 K, x1 = 0.6891	0.474
298.15 K, x1 = 0.7634	0.461
298.15 K, x1 = 0.8183	0.451
298.15 K, x1 = 0.8586	0.446
303.15 K, x1 = 0.3947	0.501
303.15 K, x1 = 0.4925	0.483
303.15 K, x1 = 0.5836	0.466
303.15 K, x1 = 0.6551	0.453
303.15 K, x1 = 0.7164	0.441
303.15 K, x1 = 0.7934	0.428
303.15 K, x1 = 0.8418	0.421
303.15 K, x1 = 0.8669	0.417

CC(=O)O + CC#N
viscosity [mPa·s], 101 kPa
Conditions	x1 = 0.0924	x1 = 0.1864	x1 = 0.282	x1 = 0.3793	x1 = 0.4782	x1 = 0.5789	x1 = 0.6814	x1 = 0.7857	x1 = 0.8919
298.15 K	0.3742	0.4162	0.4785	0.558	0.6509	0.7533	0.8608	0.9682	1.07
308.15 K	0.3267	0.3622	0.4177	0.4891	0.5719	0.6612	0.7513	0.8362	0.9088
318.15 K	0.2808	0.3168	0.3759	0.4515	0.5363	0.6224	0.7005	0.7609	0.7925

CCNc1ccccc1 + CC(=O)c1ccccc1
303.15 K, 100 kPa
Conditions	viscosity [mPa·s]
x1 = 0.0651	1.524
x1 = 0.1424	1.538
x1 = 0.2225	1.554
x1 = 0.2977	1.568
x1 = 0.3611	1.581
x1 = 0.4487	1.599
x1 = 0.5162	1.614
x1 = 0.5869	1.631
x1 = 0.6407	1.644
x1 = 0.7083	1.662
x1 = 0.7798	1.681
x1 = 0.8256	1.694
x1 = 0.9025	1.715

O=S(=O)(O)O + O=[N+]([O-])c1ccccc1
303.15 K, 101 kPa
Conditions	viscosity [mPa·s]
x1 = 0.2497	3.5
x1 = 0.4023	5.75
x1 = 0.562	9.38
x1 = 0.656	12.28
x1 = 0.6792	12.94
x1 = 0.7132	13.56
x1 = 0.796	16.17
x1 = 0.8755	18.31
x1 = 0.9516	18.96
x1 = 0.9542	18.56
x1 = 0.9702	19.68
x2 = 0.0128	19.92

CC(=O)O + CCC(C)=O
viscosity [mPa·s], 101 kPa
Conditions	x1 = 0.1006	x1 = 0.2003	x1 = 0.3011	x1 = 0.4019	x1 = 0.5031	x1 = 0.6006	x1 = 0.7023	x1 = 0.7985	x1 = 0.8986
298.15 K	0.4312	0.4737	0.5266	0.5832	0.6507	0.7259	0.8152	0.9085	1.013
308.15 K	0.3905	0.4255	0.4697	0.5173	0.573	0.6346	0.7132	0.7902	0.879
318.15 K	0.3521	0.3832	0.4196	0.4601	0.5058	0.559	0.6203	0.6845	0.7622

CCNc1ccccc1 + CCCCCCCCO
viscosity [mPa·s], 101 kPa
Conditions	303.15 K	308.15 K	313.15 K
x1 = 0.0802	5.589	4.869	3.822
x1 = 0.1625	5.024	4.381	3.478
x1 = 0.2541	4.463	3.898	3.134
x1 = 0.3514	3.937	3.445	2.808
x1 = 0.4421	3.504	3.071	2.537
x1 = 0.5012	3.248	2.851	2.375
x1 = 0.5741	2.96	2.601	2.19
x1 = 0.6214	2.787	2.451	2.078
x1 = 0.6952	2.538	2.235	1.915
x1 = 0.7412	2.395	2.112	1.822
x1 = 0.7954	2.238	1.975	1.717
x1 = 0.8412	2.114	1.867	1.635
x1 = 0.8921	1.984	1.756	1.549

ClCCl + C1CCOC1
298 K, 101 kPa
Conditions	viscosity [mPa·s]
x1 = 0.0981	0.455
x1 = 0.2079	0.454
x1 = 0.3064	0.453
x1 = 0.3509	0.452
x1 = 0.4032	0.451
x1 = 0.4519	0.45
x1 = 0.4994	0.449
x1 = 0.5531	0.447
x1 = 0.5994	0.445
x1 = 0.6477	0.443
x1 = 0.6696	0.441
x1 = 0.7756	0.437
x1 = 0.7999	0.435
x1 = 0.9011	0.428

CC(=O)O + CCCCOC(C)=O
viscosity [mPa·s], 101 kPa
Conditions	298.15 K	313.15 K
x2 = 0.1025	1.003	0.811
x2 = 0.2035	0.947	0.767
x2 = 0.2989	0.887	0.724
x2 = 0.3998	0.842	0.685
x2 = 0.4907	0.811	0.671
x2 = 0.6449	0.77	0.63
x2 = 0.8015	0.729	0.599
x2 = 0.8705	0.726	0.589
x2 = 0.8886	0.723	0.592
x2 = 0.9096	0.712	0.583
x2 = 0.9315	0.698	0.58
x2 = 0.9427	0.698	0.58
x2 = 0.9605	0.696	0.574
x2 = 0.9779	0.686	0.563

CC1CCCC(C)C1=O (stereo not given) + COc1ccccc1N
viscosity [mPa·s], 100 kPa
Conditions	x2 = 0.0997	x2 = 0.1852	x2 = 0.2554	x2 = 0.3527	x2 = 0.4551	x2 = 0.5424	x2 = 0.6519	x2 = 0.7414	x2 = 0.8479
303.15 K	3.865	3.998	4.106	4.247	4.383	4.491	4.612	4.701	4.797
308.15 K	3.412	3.557	3.673	3.825	3.972	4.09	4.227	4.325	4.435
313.15 K	2.958	3.116	3.239	3.401	3.56	3.687	3.84	3.948	4.071

CC[NH+](C)CC.CS(=O)(=O)[O-] + O
Conditions	viscosity [mPa·s]
318.15 K, 100 kPa, x1 = 0.4263	15.65

CCCC[n+]1ccn(C)c1.N[C@@H](CCC(=O)O)C(=O)[O-] + CO
Conditions	viscosity [mPa·s]
313.15 K, 101 kPa, x1 = 0.7005	19.95

CC(=O)O + Cc1ccc(C)cc1
viscosity, 101 kPa
Conditions	x2 = 0.0592	x2 = 0.124	x2 = 0.1952	x2 = 0.2738	x2 = 0.3615	x2 = 0.4596	x2 = 0.569	x2 = 0.6934	x2 = 0.8354
303.15 K	0.8817 mPa·s and 0.882 mPa·s	0.7951 mPa·s and 0.795 mPa·s	0.7314 mPa·s and 0.731 mPa·s	0.6755 mPa·s and 0.676 mPa·s	0.6446 mPa·s and 0.645 mPa·s	0.6109 mPa·s and 0.611 mPa·s	0.5923 mPa·s and 0.592 mPa·s	0.58 mPa·s and 0.58 mPa·s	0.571 mPa·s and 0.571 mPa·s
308.15 K	0.8236 mPa·s	0.7455 mPa·s	0.685 mPa·s	0.6373 mPa·s	0.6095 mPa·s	0.5737 mPa·s	0.5606 mPa·s	0.5476 mPa·s	0.5393 mPa·s
313.15 K	0.7876 mPa·s	0.7172 mPa·s	0.6617 mPa·s	0.6171 mPa·s	0.5816 mPa·s	0.5522 mPa·s	–	0.5233 mPa·s	–
318.15 K	0.7347 mPa·s	0.6716 mPa·s	0.6249 mPa·s	0.5798 mPa·s	0.5483 mPa·s	0.5222 mPa·s	0.5018 mPa·s	0.4927 mPa·s	0.4862 mPa·s
323.15 K	0.6874 mPa·s and 0.687 mPa·s	0.6339 mPa·s and 0.634 mPa·s	0.5878 mPa·s and 0.588 mPa·s	0.5468 mPa·s and 0.547 mPa·s	0.5158 mPa·s and 0.516 mPa·s	0.4913 mPa·s and 0.491 mPa·s	0.4775 mPa·s and 0.478 mPa·s	0.4674 mPa·s and 0.467 mPa·s	0.4608 mPa·s and 0.461 mPa·s
